Measurements published in PMC12238723, “Phase I Clinical Trial of CVL218, a Novel PARP1/2 Inhibitor, in Patients with Advanced Solid Tumors” (MedComm, 2025).

Assay: Plasma PK after a single oral dose (Cycle 0 Day 1)
Type: in vivo, patients
Procedure: CVL218 was administered orally, and this dose‐escalation trial included nine dose levels: 100 mg QD (50 mg BID), 200 mg QD (100 mg BID), 400 mg QD (200 mg BID), 700 mg QD (350 mg BID), 1000 mg QD (500 mg BID), 1200 mg QD (600 mg BID), 1400 mg QD (700 mg BID), 1700 mg QD (850 mg BID), and 2000 mg QD (1000 mg BID). Patients enrolled in the study received a single oral dose on the first day, followed by continuous multiple dosing (twice a day taking 12 h apart) after 72 h, with the treatment cycle lasting 4 weeks. The period during which patients received a single dose is designated as cycle 0 (C0), lasting 72 h. After this period, patients begin multiple dosing, referred to as cycle 1 (C1). An initial accelerated titration design was employed for the three lowest dose groups, and the “3+3” design was applied starting with the 300 mg BID cohort.
A clinical PK study of CVL218 was conducted, involving blood samples collection during single‐dose administration (before treatment and 0.5, 1, 2, 3, 4, 5, 6, 8, 10, 12, and 24 h after treatment on C0D1) and multiple dosing (before treatment and 0.5, 1, 2, 3, 4, 5, 6, 8, 10, and 12 h after treatment on C1D1; before treatment on C1D8, C1D15, and C1D22; before treatment and 0.5, 1, 2, 3, 4, 5, 6, 8, 10, and 12 h after treatment on C1D28)
Single‐dose and multiple‐dose PK parameters included C max, T max, elimination half‐life (T 1/2), AUC0– t , AUC0–inf, oral clearance (CL/F), and apparent volume of distribution (V z/F) for CVL218. Tumor response was assessed per RECIST 1.1. ORR was defined as proportion of patients with a CR or PR on at least one visit, while DCR was defined as proportion of patients with a CR or PR or SD. PFS was defined as the time from the first dose of either drug to investigator assessed radiologic PD or to death of any cause. PFS would be censored at the time of last tumor assessment.
Subjects who received at least one dose of CVL218 with postadministration safety records were included in safety analysis set. Subjects who received at least one dose of CVL218 with at least one evaluable PK parameter were included in PK analysis set. Per‐protocol set were used for efficacy analysis. Descriptive statistics of safety were presented per CTCAE v5.0. The PK parameters T max and T 1/2 were shown as the median (min, max) and mean ± SD, respectively. A two‐sided p < 0.05 was considered to indicate statistical significance. Statistical analysis was performed by using GraphPad prism 8.0.2 and R‐4.3.3.

[1] = single dose C0D1, 100mg QD, n 1
[2] = single dose C0D1, 200mg QD, n 1
[3] = single dose C0D1, 400mg QD, n 1
[4] = single dose C0D1, 700mg QD, n 4
[5] = single dose C0D1, 1000mg QD, n 4
[6] = single dose C0D1, 1200mg QD, n 4
[7] = single dose C0D1, 1400mg QD, n 6
[8] = single dose C0D1, 1700mg QD, n 5

## CNCc1ccc(-c2cc3cc(F)cc(C(N)=O)c3o2)cc1.Cl [CVL218]
[1]
  AUC0-inf, Geometric Mean: 231.0 ng·h/mL
  AUC0-t, Geometric Mean: 207.0 ng·h/mL
  Cl/F, Geometric Mean: 432000.0 mL/h
  Cmax, Geometric Mean: 40.9 ng/mL
  T1/2, Mean: 3.6 h
  Vz/F, Geometric Mean: 2270000.0 mL
[2]
  AUC0-inf, Geometric Mean: 1360.0 ng·h/mL
  AUC0-t, Geometric Mean: 1310.0 ng·h/mL
  Cl/F, Geometric Mean: 147000.0 mL/h
  Cmax, Geometric Mean: 218.0 ng/mL
  T1/2, Mean: 5.1 h
  Vz/F, Geometric Mean: 1080000.0 mL
[3]
  AUC0-inf, Geometric Mean: 2010.0 ng·h/mL
  AUC0-t, Geometric Mean: 1900.0 ng·h/mL
  Cl/F, Geometric Mean: 199000.0 mL/h
  Cmax, Geometric Mean: 334.0 ng/mL
  T1/2, Mean: 6.0 h
  Vz/F, Geometric Mean: 1710000.0 mL
[4]
  AUC0-inf, Geometric Mean: 3450.0 ng·h/mL
  AUC0-t, Geometric Mean: 3260.0 ng·h/mL
  Cl/F, Geometric Mean: 203000.0 mL/h
  Cmax, Geometric Mean: 360.0 ng/mL
  T1/2, Mean: 6.3 h
  Vz/F, Geometric Mean: 1700000.0 mL
[5]
  AUC0-inf, Geometric Mean: 4820.0 ng·h/mL
  AUC0-t, Geometric Mean: 4095.0 ng·h/mL
  Cl/F, Geometric Mean: 212000.0 mL/h
  Cmax, Geometric Mean: 579.5 ng/mL
  T1/2, Mean: 6.2 h
  Vz/F, Geometric Mean: 2205000.0 mL
[6]
  AUC0-inf, Geometric Mean: 4415.0 ng·h/mL
  AUC0-t, Geometric Mean: 4175.0 ng·h/mL
  Cl/F, Geometric Mean: 276000.0 mL/h
  Cmax, Geometric Mean: 547.5 ng/mL
  T1/2, Mean: 6.3 h
  Vz/F, Geometric Mean: 2155000.0 mL
[7]
  AUC0-inf, Geometric Mean: 5360.0 ng·h/mL
  AUC0-t, Geometric Mean: 5190.0 ng·h/mL
  Cl/F, Geometric Mean: 274500.0 mL/h
  Cmax, Geometric Mean: 633.0 ng/mL
  T1/2, Mean: 4.7 h
  Vz/F, Geometric Mean: 1920000.0 mL
[8]
  AUC0-inf, Geometric Mean: 4180.0 ng·h/mL
  AUC0-t, Geometric Mean: 4070.0 ng·h/mL
  Cl/F, Geometric Mean: 407000.0 mL/h
  Cmax, Geometric Mean: 408.0 ng/mL
  T1/2, Mean: 5.8 h
  Vz/F, Geometric Mean: 2780000.0 mL
Single dose, range over cohorts
  median Tmax: 1 to 4 h
Single oral dose, range over cohorts
  mean half-life: 3.6 to 6.3 h
